# ± gives the expanded uncertainty stated by the source.
# Details: Liquid; for Critical pressure: Direct measurement; for Critical temperature: Visual observation in an unstirred cell
Critical pressure,Critical temperature,Structure (SMILES)
8128 ± 30 kPa,512.3 ± 2.4 K,CO [methanol]
5172 ± 30 kPa,537 ± 2.4 K,CCCO [propan-1-ol]
3030 ± 30 kPa,507.9 ± 2.4 K,CCCCCC [hexane]

# Further lines, the compound ahead of its results:
Structure (SMILES),Critical pressure,Critical temperature
COC(C)(C)C [2-methoxy-2-methylpropane],3448 ± 30 kPa,497 ± 2.4 K
CCO [ethanol],6135 ± 30 kPa,514.2 ± 2.4 K
CCCCCCC [heptane],2761 ± 30 kPa,540 ± 2.4 K
C1CCCCC1 [cyclohexane],4110 ± 30 kPa,554.1 ± 2.4 K

# Source: the NIST ThermoML archive (doi:10.1016/j.jct.2013.03.002)
